Source: ChEMBL document CHEMBL5236615, “Discovery of Novel N-Heterocyclic-Fused Deoxypodophyllotoxin Analogues as Tubulin Polymerization Inhibitors Targeting the Colchicine-Binding Site for Cancer Treatment” (J Med Chem, 2022)
The source made the active and inactive calls. The rule behind the calls is not given here.

Tests used:
[1] = Metabolic stability in human liver microsomes assessed as half life at 1 uM by LC/MS analysis; assay type: ADME, Microsome
[2] = test system: MCF7; test: Induction of cell cycle arrest in human MCF7 cells assessed as accumulation of cells at G2/M phase at 5 nM measured after 24 hrs by flow cytometry relative to control; assay type: functional
[3] = test system: MCF7; test: Induction of cell cycle arrest in human MCF7 cells assessed as accumulation of cells at G2/M phase at 20 nM measured after 24 hrs by flow cytometry relative to control; assay type: functional
[4] = test system: MCF7; test: Induction of cell cycle arrest in human MCF7 cells assessed as arrest in G2/M phase by measuring accumulation of cyclin B1 at 5 to 25 nM incubated for 24 hrs by Western blotting analysis; assay type: functional, cell-based; conditions: dose 5-25 nM
[5] = test system: MCF7; test: Induction of apoptosis in human MCF7 cells incubated for 24 hrs by annexinV/PI assay; assay type: functional, cell-based; conditions: dose 5-25 nM
[6] = test system: MCF7; test: Induction of apoptosis in human MCF7 cells assessed as upregulation of cleaved Caspase 3 at 5 to 20 nM measured after 24 hrs by Western blot analysis; assay type: functional, cell-based; conditions: dose 5-20 nM
[7] = test system: MCF7; test: Induction of apoptosis in human MCF7 cells assessed as upregulation of cleaved Caspase 9 at 5 to 20 nM measured after 24 hrs by Western blot analysis; assay type: functional, cell-based; conditions: dose 5-20 nM
[8] = test system: A549/TxR; test: Induction of apoptosis in paclitaxel-resistant human A549/TxR cells incubated for 24 hrs by annexinV/PI assay; assay type: functional, cell-based; conditions: dose 5-20 nM
[9] = test system: MCF7; test: Antitumor activity against human MCF7 cells xenografted in Balb/c mouse assessed as tumor growth inhibition at 5 mg/kg, ip administered for every 2 days for 21 days; assay type: functional; conditions: MCF7, 504 h, time 21 day, read-out: TGI
[10] = test system: MCF7; test: Antitumor activity against human MCF7 cells xenografted in Balb/c mouse assessed as decrease in Ki67-positive tumor cells in tumor at 20 mg/kg, ip administered for every 2 days for 21 days; assay type: functional, organism-based; conditions: time 2.0 day
[11] = test system: MCF7; test: Antitumor activity against human MCF7 cells xenografted in Balb/c mouse assessed as decrease in CD31-positive tumor cells in tumor at 20 mg/kg, ip administered for every 2 days for 21 days; assay type: functional, organism-based; conditions: time 2.0 day
[12] = Acute toxicity in ICR mouse; conditions: in vivo
[13] = target: Tubulin (Homo sapiens) (UniProt P68371+Q9H4B7+P0DPH7+P68366+Q13509+Q71U36+P04350+Q3ZCM7+P07437+P68363+Q9BQE3+Q6PEY2+Q13885+Q9BVA1+Q9BUF5); test: Disruption of microtubule network in human MCF7 cells assessed as broken microtubule filaments at 20 nM measured after 6 hrs by immunofluorescence assay; assay type: cell-based
[14] = test system: MCF7; test: Induction of apoptosis in human MCF7 cells assessed as upregulation of p-Bim EL protein expression at 5 to 20 nM in presence of roscovitine measured after 24 hrs by Western blot analysis; assay type: functional, cell-based; conditions: dose 5-20 nM
[15] = test system: MCF7; test: Induction of cell cycle arrest in human MCF7 cells assessed as upregulation of Bcl2 phosphorylation at […] at 5 to 20 nM in presence of roscovitine measured after 24 hrs by Western blot analysis; assay type: functional, cell-based; conditions: dose 5-20 nM
[16] = test system: MCF7; test: Induction of cell cycle arrest in human MCF7 cells assessed as CI-PARP at 5 to 20 nM in presence of roscovitine measured after 24 hrs by Western blot analysis; assay type: functional, cell-based; conditions: dose 5-20 nM
[17] = test system: MCF7; test: Induction of cell cycle arrest in human MCF7 cells assessed as acetyl-alpha tubulin at 20 nM in presence of roscovitine measured after 24 hrs by Western blot analysis; assay type: functional, cell-based
[18] = test system: MCF7; test: Antiproliferative activity against human MCF7 cells assessed as survival rate at 20 nM in presence of roscovitine measured after 72 hrs by MTT assay relative to control; assay type: functional
[19] = Antitumor activity against paclitaxel-resistant human MCF7/TxR cells xenografted in Balb/c mouse assessed as tumor growth inhibition at 5 mg/kg, ip administered for every 2 days for 21 days; assay type: functional; conditions: read-out: TGI
[20] = Antitumor activity against paclitaxel-resistant human MCF7/TxR cells xenografted in Balb/c mouse assessed as tumor growth inhibition at 10 mg/kg, ip administered for every 2 days for 21 days; assay type: functional; conditions: 504 h, time 21 day, read-out: TGI
[21] = Antitumor activity against paclitaxel-resistant human MCF7/TxR cells xenografted in Balb/c mouse assessed as tumor growth inhibition at 20 mg/kg, ip administered for every 2 days for 21 days; assay type: functional; conditions: 504 h, time 21 day, read-out: TGI
[22] = Toxicity in Balb/c mouse assessed as pathological changes in blood alanine aminotransferase level at 20 mg/kg, ip administered for every 2 days for 14 days; assay type: organism-based; conditions: in vivo, 336 h, time 14 day
[23] = Toxicity in Balb/c mouse assessed as pathological changes in blood urea nitrogen level at 20 mg/kg, ip administered for every 2 days for 14 days; assay type: organism-based; conditions: in vivo, 336 h, time 14 day
[24] = Toxicity in Balb/c mouse assessed as pathological changes in blood creatinine level at 20 mg/kg, ip administered for every 2 days for 14 days; assay type: organism-based; conditions: in vivo, 336 h, time 14 day
[25] = Toxicity in Balb/c mouse assessed as pathological changes in blood lactic dehydrogenase level at 20 mg/kg, ip administered for every 2 days for 14 days; assay type: organism-based; conditions: in vivo, 336 h, time 14 day
[26] = Toxicity in Balb/c mouse assessed as pathological changes in blood creatine kinase level at 20 mg/kg, ip administered for every 2 days for 14 days; assay type: organism-based; conditions: in vivo, 336 h, time 14 day
[27] = Cardiotoxicity in Sprague-Dawley rat assessed as heart rate at 10 to 60 mg/kg, iv measured upto 60 mins by electrocardiography; assay type: toxicity, organism-based; conditions: in vivo, 1 h, dose 10-60 mg/kg
[28] = Cardiotoxicity in Sprague-Dawley rat assessed as RR interval at 10 to 60 mg/kg, iv measured upto 60 mins by electrocardiography; assay type: toxicity, organism-based; conditions: in vivo, 1 h, dose 10-60 mg/kg
[29] = Cardiotoxicity in Sprague-Dawley rat assessed as PR interval at 10 to 60 mg/kg, iv measured upto 60 mins by electrocardiography; assay type: toxicity, organism-based; conditions: in vivo, 1 h, dose 10-60 mg/kg
[30] = Cardiotoxicity in Sprague-Dawley rat assessed as Qt interval at 10 to 60 mg/kg, iv measured upto 60 mins by electrocardiography; assay type: toxicity, organism-based; conditions: in vivo, 1 h, dose 10-60 mg/kg
[31] = Cardiotoxicity in Sprague-Dawley rat assessed as QT correction value at 10 to 60 mg/kg, iv measured upto 60 mins by electrocardiography; assay type: toxicity, organism-based; conditions: in vivo, 1 h, dose 10-60 mg/kg
[32] = Cardiotoxicity in Sprague-Dawley rat assessed as QTcf value at 10 to 60 mg/kg, iv measured upto 60 mins by electrocardiography; assay type: toxicity, organism-based; conditions: in vivo, 1 h, dose 10-60 mg/kg
[33] = Half life in Sprague-Dawley rat at 10 mg/kg, iv measured upto 8 hrs by LC/MS/MS analysis; assay type: ADME, organism-based; conditions: in vivo
[34] = Volume of distribution at steady sate in Sprague-Dawley rat at 10 mg/kg, iv measured upto 8 hrs by LC/MS/MS analysis; assay type: ADME, organism-based; conditions: in vivo, read-out: Vdss
[35] = AUC (0 to t) in Sprague-Dawley rat at 10 mg/kg, iv measured upto 8 hrs by LC/MS/MS analysis; assay type: ADME, organism-based; design: dose 10 mg/kg, time < 8 hrs, route iv; conditions: in vivo
[36] = Clearance in Sprague-Dawley rat at 10 mg/kg, iv measured upto 8 hrs by LC/MS/MS analysis; assay type: ADME, organism-based; conditions: in vivo
[37] = Cmax in Sprague-Dawley rat at 10 mg/kg, iv measured upto 8 hrs by LC/MS/MS analysis; assay type: ADME, organism-based; design: dose 10 mg/kg, time < 8 hrs, route iv; conditions: in vivo

**Q.** Which half-life at 1 µM [1] does the source give for COc1c(Br)cc([C@@H]2c3cc4c(cc3C[C@H]3C(=O)NC(=O)N23)OCCO4)cc1Br here?
**A.** The half-life at 1 µM was 10.4 min.

**Q.** And the Activity [2]?
**A.** The Activity was 16%.

**Q.** And the Activity [3]?
**A.** The Activity was 16%.

**Q.** And the Activity [4]?
**A.** Its Activity is “Active”.

**Q.** What about the Activity [5] of the same molecule?
**A.** The Activity was “Dose-Dependent Effect”.

**Q.** And the Activity [6]?
**A.** The Activity was “Active”.

**Q.** And the Activity [7]?
**A.** Its Activity is “Active”.

**Q.** What about the inhibition [8] of the same molecule?
**A.** The inhibition was “Dose-Dependent Effect”.

**Q.** And the inhibition in vivo at 5 mg/kg [9]?
**A.** The inhibition in vivo at 5 mg/kg was 20.8%.

**Q.** What about the Activity [10] of the same molecule?
**A.** The Activity was “Active”.

**Q.** What about the Activity [11] of the same molecule?
**A.** The Activity was “Active”.

**Q.** And the LD50 [12]?
**A.** Its LD50 is 86.2 mg/kg.

**Q.** Which results are given for COc1c(Cl)cc([C@@H]2c3cc4c(cc3C[C@H]3C(=O)NC(=O)N23)OCCO4)cc1Cl?
**A.** half-life at 1 µM [1]: 26.1 min; Activity [13]: Active; Activity [2]: 16%; Activity [3]: 16%; Activity [4]: Active; Activity [5]: Dose-Dependent Effect; Activity [6]: Active; Activity [7]: Active; Activity [14]: inactive; Activity [15]: inactive; Activity [16]: inactive; Activity [17]: Active; Activity [18]: 60.71%; inhibition [8]: Dose-Dependent Effect; inhibition in vivo at 5 mg/kg [9]: 41%; Activity [10]: Active; Activity [11]: Active; LD50 [12]: 211 mg/kg; inhibition in vivo at 5 mg/kg [19]: 38.9%; inhibition in vivo at 10 mg/kg [20]: 49.2%; inhibition in vivo at 20 mg/kg [21]: 67.7%; Activity [22]: Non-Toxic; Activity [23]: Non-Toxic; Activity [24]: Non-Toxic; Activity [25]: Non-Toxic; Activity [26]: Non-Toxic; Activity [27]: Non-Toxic; Activity [28]: Non-Toxic; Activity [29]: Non-Toxic; Activity [30]: Non-Toxic; Activity [31]: Non-Toxic; Activity [32]: Non-Toxic; t1/2 [33]: 95.4 min; Vd [34]: 6.99 L/kg; AUCt [35]: 6530 ng·h/mL; CL [36]: 65 mL/min/kg; Cmax [37]: 7291 ng/mL
